Reference: PubChem BioAssay (NCI)
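Exposure lasted 48 hours, with cells grown in 96-well plates and compounds tested at five concentrations. GI50 = concentration required for 50% inhibition of growth. TGI: concentration producing complete growth inhibition.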

Tests used:
Experiment in all cases: growth of human tumour cells (NCI), 48 h; in the data active means GI50 below about 0.43 µM; inactive means the rest
NCI-H23 lung = tested on: NCI-H23 lung
HL-60(TB) leukemia = tested on: HL-60(TB) leukemia
MDA-MB-231 breast = tested on: MDA-MB-231 breast
BT-549 breast = tested on: BT-549 breast
MDA-MB-435 = tested on: MDA-MB-435
SNB-19 CNS = tested on: SNB-19 CNS
HOP-92 NSCLC = tested on: HOP-92 NSCLC
OVCAR-5 ovarian = tested on: OVCAR-5 ovarian
RXF 393 renal = tested on: RXF 393 renal
SK-OV-3 ovarian = tested on: SK-OV-3 ovarian
T-47D breast = tested on: T-47D breast
M14 melanoma = tested on: M14 melanoma
UACC-257 melanoma = tested on: UACC-257 melanoma
HCT-116 colon = tested on: HCT-116 colon
MCF7 breast = tested on: MCF7 breast
HOP-62 NSCLC = tested on: HOP-62 NSCLC
KM12 colon = tested on: KM12 colon
SN12C renal = tested on: SN12C renal
MOLT-4 leukemia = tested on: MOLT-4 leukemia
SR leukemia = tested on: SR leukemia
SF-295 CNS = tested on: SF-295 CNS
TK-10 renal = tested on: TK-10 renal
UACC-62 melanoma = tested on: UACC-62 melanoma
SK-MEL-5 melanoma = tested on: SK-MEL-5 melanoma
HCT-15 colon = tested on: HCT-15 colon
SF-268 CNS = tested on: SF-268 CNS
COLO 205 colon = tested on: COLO 205 colon
OVCAR-3 ovarian = tested on: OVCAR-3 ovarian
K-562 leukemia = tested on: K-562 leukemia
OVCAR-8 ovarian = tested on: OVCAR-8 ovarian
DU-145 prostate = tested on: DU-145 prostate
CAKI-1 renal = tested on: CAKI-1 renal
PC-3 prostate = tested on: PC-3 prostate
SK-MEL-2 melanoma = tested on: SK-MEL-2 melanoma
NCI-H460 lung = tested on: NCI-H460 lung
786-0 renal = tested on: 786-0 renal
CCRF-CEM leukemia = tested on: CCRF-CEM leukemia
OVCAR-4 ovarian = tested on: OVCAR-4 ovarian
SW-620 colon = tested on: SW-620 colon
HT29 colon = tested on: HT29 colon
UO-31 renal = tested on: UO-31 renal
A549 NSCLC = tested on: A549 NSCLC
EKVX NSCLC = tested on: EKVX NSCLC
SF-539 CNS = tested on: SF-539 CNS
NCI-H226 lung = tested on: NCI-H226 lung
SK-MEL-28 melanoma = tested on: SK-MEL-28 melanoma
ACHN renal = tested on: ACHN renal
U251 CNS = tested on: U251 CNS
NCI/ADR-RES ovarian = tested on: NCI/ADR-RES ovarian
MALME-3M melanoma = tested on: MALME-3M melanoma
SNB-75 CNS = tested on: SNB-75 CNS
LOX IMVI melanoma = tested on: LOX IMVI melanoma
IGROV1 ovarian = tested on: IGROV1 ovarian

Cn1ncc2c(Sc3ccc(Cl)cc3)ncnc21
inactive: GI50 (NCI-H23 lung) 15.9 µM | GI50 (HL-60(TB) leukemia) 11.3 µM | GI50 (MDA-MB-231 breast) 13.2 µM | GI50 (BT-549 breast) 27.3 µM | GI50 (MDA-MB-435) 22.5 µM | GI50 (SNB-19 CNS) 26.9 µM | GI50 (HOP-92 NSCLC) 3.31 µM | GI50 (OVCAR-5 ovarian) > 100 µM | GI50 (RXF 393 renal) 98.4 µM | GI50 (SK-OV-3 ovarian) 67.9 µM | GI50 (T-47D breast) 14.4 µM | GI50 (M14 melanoma) 93.5 µM | GI50 (UACC-257 melanoma) > 100 µM | GI50 (HCT-116 colon) 55.1 µM | GI50 (MCF7 breast) > 100 µM | GI50 (HOP-62 NSCLC) 28.8 µM | GI50 (KM12 colon) 11.6 µM | GI50 (SN12C renal) 7.37 µM | GI50 (MOLT-4 leukemia) 10.3 µM | GI50 (SR leukemia) 20.6 µM | GI50 (SF-295 CNS) 9.58 µM | GI50 (TK-10 renal) > 100 µM | GI50 (UACC-62 melanoma) 77.8 µM | GI50 (SK-MEL-5 melanoma) 51.5 µM | GI50 (HCT-15 colon) > 100 µM | GI50 (SF-268 CNS) 7.26 µM | GI50 (COLO 205 colon) > 100 µM | GI50 (OVCAR-3 ovarian) 36.5 µM | GI50 (K-562 leukemia) > 100 µM | GI50 (OVCAR-8 ovarian) > 100 µM | GI50 (DU-145 prostate) 36.1 µM | GI50 (CAKI-1 renal) 15.4 µM | GI50 (PC-3 prostate) 7.03 µM | GI50 (SK-MEL-2 melanoma) > 100 µM | GI50 (NCI-H460 lung) 21.3 µM | GI50 (786-0 renal) 44.1 µM | GI50 (CCRF-CEM leukemia) 4.8 µM | GI50 (OVCAR-4 ovarian) 36 µM | GI50 (SW-620 colon) > 100 µM | GI50 (HT29 colon) > 100 µM | GI50 (UO-31 renal) 5.53 µM | GI50 (A549 NSCLC) 18.8 µM | GI50 (EKVX NSCLC) 10.5 µM | GI50 (SF-539 CNS) 68.1 µM | GI50 (NCI-H226 lung) 36.5 µM | GI50 (SK-MEL-28 melanoma) > 100 µM | GI50 (ACHN renal) > 100 µM | GI50 (U251 CNS) 16.2 µM | GI50 (NCI/ADR-RES ovarian) 21.7 µM | GI50 (MALME-3M melanoma) 57.4 µM | GI50 (SNB-75 CNS) 22.9 µM | GI50 (LOX IMVI melanoma) 12 µM | GI50 (IGROV1 ovarian) 4.36 µM
> 100 µM: TGI (NCI-H23 lung) | TGI (HL-60(TB) leukemia) | TGI (MDA-MB-231 breast) | TGI (BT-549 breast) | TGI (MDA-MB-435) | TGI (SNB-19 CNS) | TGI (HOP-92 NSCLC) | TGI (OVCAR-5 ovarian) | TGI (RXF 393 renal) | TGI (SK-OV-3 ovarian) | TGI (T-47D breast) | TGI (M14 melanoma) | TGI (UACC-257 melanoma) | TGI (HCT-116 colon) | TGI (MCF7 breast) | TGI (HOP-62 NSCLC) | TGI (KM12 colon) | TGI (SN12C renal) | TGI (MOLT-4 leukemia) | TGI (SR leukemia) | TGI (SF-295 CNS) | TGI (TK-10 renal) | TGI (UACC-62 melanoma) | TGI (SK-MEL-5 melanoma) | TGI (HCT-15 colon) | TGI (SF-268 CNS) | TGI (COLO 205 colon) | TGI (OVCAR-3 ovarian) | TGI (K-562 leukemia) | TGI (OVCAR-8 ovarian) | TGI (DU-145 prostate) | TGI (CAKI-1 renal) | TGI (PC-3 prostate) | TGI (SK-MEL-2 melanoma) | TGI (NCI-H460 lung) | TGI (786-0 renal) | TGI (CCRF-CEM leukemia) | TGI (OVCAR-4 ovarian) | TGI (SW-620 colon) | TGI (HT29 colon) | TGI (UO-31 renal) | TGI (A549 NSCLC) | TGI (EKVX NSCLC) | TGI (SF-539 CNS) | TGI (NCI-H226 lung) | TGI (SK-MEL-28 melanoma) | TGI (ACHN renal) | TGI (U251 CNS) | TGI (NCI/ADR-RES ovarian) | TGI (MALME-3M melanoma) | TGI (SNB-75 CNS) | TGI (LOX IMVI melanoma)
49.8 µM: TGI (IGROV1 ovarian)
